Reference: BigSolDB 2.1

O=C(O)CNC(=O)OCc1ccccc1
solubility (mole fraction)
Details	283.15 K	288.15 K	293.15 K	298.15 K	303.15 K	308.15 K	313.15 K	318.15 K	323.15 K
in 2-butanone	0.0371	0.0437	0.0508	0.0592	0.0692	0.082	0.0966	0.114	0.134
in acetone	0.0617	0.0709	0.0815	0.0942	0.108	0.123	0.14	0.169	0.197
in acetonitrile	0.0106	0.0132	0.0159	0.0198	0.0251	0.032	0.0408	0.052	0.067
in ethanol	0.0415	0.0499	0.0611	0.0767	0.0955	0.11	0.131	0.157	0.186
in ethyl acetate	0.0185	0.0222	0.026	0.0308	0.0369	0.0442	0.053	0.0642	0.0783
in isobutanol	0.0149	0.0188	0.0237	0.0315	0.0394	0.0523	0.0665	0.0853	0.109
in isopropanol	0.0261	0.0338	0.0449	0.0566	0.0707	0.0864	0.108	0.133	0.16
in methanol	0.0654	0.0769	0.0933	0.109	0.123	0.143	0.164	0.19	0.219
in methyl acetate	0.0261	0.0309	0.0366	0.0436	0.053	0.0627	0.0737	0.0902	0.105
in n-butanol	0.0205	0.0257	0.032	0.04	0.0504	0.0627	0.0786	0.0982	0.122
in n-pentanol	0.018	0.0221	0.0275	0.0349	0.0429	0.0578	0.0727	0.0886	0.111
in n-propanol	0.0261	0.0327	0.0399	0.0504	0.0636	0.0794	0.0986	0.122	0.149
